Results on 36 molecules are retold here after a melting point compilation (Tetko et al.; mined from patent text by program, amines drawn as free bases though some values may be those of a salt).

Turning to `NS(=O)(=O)c1ccc2c(c1)C(O)CCC2` (stereo unspecified), the melting point – broadly, the temperature, or range, at which the solid turns liquid – lay within 137 to 138 °C.

As to `CN1CCN(c2n[nH]c3ccccc23)CC1`, the melting point lay in the range of 111 to 113 °C.

As to `C1=C2CCC=C2CCCCCCCCC1`, the melting point fell in the range of 97 to 102 °C.

`CC1CN(c2ccccc2)N=C1NC(=O)C(F)(F)F` (stereo unspecified) gave a melting point of 142 to 144 °C.

With `CNc1nc(NC)nc(OC(F)(F)F)n1`, the melting point is 68 to 72 °C.

Molecule `C=CCNc1nc(=O)c2cccnc2n1Cc1ccc(F)cc1` came in with a melting point of 190 to 194 °C.

For the molecule `CCCCCCOc1ccc(C=[N+]([O-])C(C)(C)C)cc1OCC`, the melting point was 35.5 °C.

In turn, `O=c1cc(C(F)(F)F)c2ccc(NCCc3ccccc3)nc2o1` returned a melting point of 104 to 106 °C.

`FC(F)(F)c1cccc(Nc2ncnc(NCc3ccco3)n2)c1` came in with a melting point of 207 to 209 °C.

The molecule `COc1ccc(C(=O)NCC(=O)N2c3ccccc3N(Cc3ccccc3)C(=O)[C@H]3CCC[C@H]32)cc1` (relative stereo) displayed a melting point of 160 to 161 °C.

With `O=C(NC(Cc1ccccc1)C(=O)O)OCc1ccc(CCOc2ccccc2)cc1` (stereo unspecified), the melting point was 150 to 152 °C.

`C[C@@H]1CCC[C@H](C)N1CCNC(=O)CN1CCCC1=O` came in with a melting point of 93 to 94.5 °C.

Turning to `CN1C(=O)c2cccc(S(=O)(=O)NC(C)(C)C)c2C1=O`, the melting point is 160 to 163 °C.

Consider `COc1cc(C=O)c([N+](=O)[O-])c(OC)c1`, for which the melting point fell in the range of 104 to 105 °C.

Molecule `COc1cn(-c2cccc3cccnc23)nc(-c2ccnn2-c2ccccc2)c1=O` returned a melting point of 189 to 192 °C.

As to `NC(=O)c1cc(C(=O)CN(Cc2ccccc2)Cc2ccccc2)ccc1OCCCCOC1CCCCO1` (stereo unspecified), the melting point was 118 to 123 °C.

`CCOC(=O)Cc1c(C(=O)O)c(Br)c(C(=O)c2ccc(Cl)cc2)n1C` yielded a melting point of 183 to 185 °C.

Regarding `Cc1ccc(S(=O)(=O)Oc2ccc(S(=O)(=O)c3c(C)cn4ccccc34)cc2)cc1`, the melting point came to 169 °C.

For `NC(=O)c1cnn(-c2ccc(F)cc2)c1-c1ccncc1`, the melting point was in the range of 215 to 216 °C.

The molecule `OCCc1cn2ccccc2n1` came in with a melting point of 120 to 127 °C.

`Oc1cccc2c1CC1CNCC2C1` (stereo unspecified) displayed a melting point of 106 to 108 °C.

The molecule `O=CC(=Cc1ccc(OC(=O)c2ccccc2)cc1)C(C=O)=Cc1ccc(OC(=O)c2ccccc2)cc1` displayed a melting point of 207 to 208 °C.

Turning to `C=CCC(C(N)=O)C(CC(C)C)C(=O)NC1N=C(c2cccnc2)c2ccccc2N(C)C1=O` (stereo unspecified), the melting point was 251 to 253 °C.

On to `CCOCc1nc2c(N)nc3cc(N4CCOC4=O)ccc3c2n1CC(C)(C)O`, for which the melting point is greater than 250 °C.

Turning to `CS(=O)(=O)Cc1ccc(C(=NNC(N)=O)c2ccc(Cl)cc2)cc1`, the melting point is 189 to 191 °C.

Turning to `Cc1cc(C(=O)N2Cc3ccc(C(=O)NCc4cccnc4)n3Cc3ccccc32)ccc1I`, the melting point lay in the range of 176 to 177 °C.

Consider `CCc1nc(CCc2cccc(N)c2)sc1C`, for which the melting point is 64 to 65 °C.

`O=C1CC(c2cccc(-c3nc(C(=O)NCCO)co3)c2)=Nc2ccc(-n3cccc3)cc2N1` displayed a melting point of 242 to 244 °C.

Molecule `CCOC(=O)C(=O)Nc1ccc2ccccc2c1[N+](=O)[O-]` registered a melting point of 139 to 140 °C.

Regarding `Cc1ccc(C)c(OCCC(Cl)C(C)(C)C(=O)O)c1` (stereo unspecified), the melting point lay in the range of 117 to 118 °C.

With `CCOC(=O)c1cccc2c(-c3ccc(C)cc3)nccc12`, the melting point stood at 112 °C.

Molecule `COc1ccc(NC(=O)c2ccccc2NC(=O)c2ccc(C(C)(C)C)cc2)cc1` registered a melting point of 208 to 210 °C.

As to `O=C1c2cccc([N+](=O)[O-])c2C2CC(O)CCN12` (stereo unspecified), the melting point is greater than 260 °C.

In turn, `Cc1cc(C)c(/C=C/[C@H]2C[C@H](O)CC(=O)O2)c(-c2ccc(F)c(CO)c2)c1` (relative stereo) returned a melting point of 137 to 138 °C.

With `Cc1ccccc1C(O)C1CCN(C)CC1` (stereo unspecified), the melting point lay in the range of 119 to 123 °C.

In turn, `Cc1cccc(S(=O)(=O)OS(=O)(=O)c2cccc(C)c2C)c1C` had a melting point of 115 to 130 °C.
